Reference: patent US12528838B2, “Cyclic dominant negative competence stimulating peptide analogs and methods of treating Streptococcus pneumoniae infections” (priority 2019, dated 2026)
Where two headings read alike, the source gives them in different places. Bridge positions count the residues as written; N and C are the ends. Square brackets hold non-standard residues; d marks the D form. Peptide text beside a SMILES is read from it. Dab = NCC[C@H](N)C(=O)O; Dap = NC[C@H](N)C(=O)O

Tests used:
ComD2 receptor = ComD2 receptor (Streptococcus pneumoniae serotype 4, UniProt A0A0H2US84); test: cell-based; type: cell-based
Source text: Biological evaluation of cyclic dnCSPs. […] All assays will be performed in triplicates and independently three times. Serial dilutions of dnCSPs will be conducted to determine the EC50 and IC50 values of promising dnCSPs through initial screening. Data from reporter assays will be analyzed using the GraphPad Prism software. The lead dnCSPs will be assessed for their therapeutic potential using multiple in vitro assays, including attenuation of ComX-induction (reporter systems), genetic transformation, allolysis (zymogram assays), and release of PLY (hemolysis & Western blots). Lastly, the pneumococcal competence system regulates biofilm formation, which is important for the pathogenesis of […]. The ability of the dnCSPs to inhibit biofilm formation will be evaluated after 24 hr of growth on 1% BSA coated coverslips placed in flat-bottom polystyrene tissue culture plates by staining with FilmTracer LIVE/DEAD Biofilm viability kit (Invitrogen, L10316), and visualized using a confocal microscope and Z-stacked to construct 3D-images.

ComD1 receptor = ComD1 receptor (Streptococcus pneumoniae serotype 2, UniProt A0A0H2ZM50); test: cell-based; type: cell-based
Source text: Biological evaluation of cyclic dnCSPs. The cyclic dnCSPs will be assessed for inhibition of competence induction using the β-gal, lux (FIG. 11) or luc (FIG. 15) reporter systems we have optimized for the analysis of a large number of signal variants in 96-well plates. All assays will be performed in triplicates and independently three times. Serial dilutions of dnCSPs will be conducted to determine the EC50 and IC50 values of promising dnCSPs through initial screening. Data from reporter assays will be analyzed using the GraphPad Prism software. The lead dnCSPs will be assessed for their therapeutic potential using multiple in vitro assays, including attenuation of ComX-induction (reporter systems), genetic transformation, allolysis (zymogram assays), and release of PLY (hemolysis & Western blots). Lastly, the pneumococcal competence system regulates biofilm formation, which is important for the pathogenesis of […]. The ability of the dnCSPs to inhibit biofilm formation will be evaluated after 24 hr of growth on 1% BSA coated coverslips placed in flat-bottom polystyrene tissue culture plates by staining with FilmTracer LIVE/DEAD Biofilm viability kit (Invitrogen, L10316), and visualized using a confocal microscope and Z-stacked to construct 3D-images.

Sequence of ComD1 receptor (A0A0H2ZM50 entry or part of it): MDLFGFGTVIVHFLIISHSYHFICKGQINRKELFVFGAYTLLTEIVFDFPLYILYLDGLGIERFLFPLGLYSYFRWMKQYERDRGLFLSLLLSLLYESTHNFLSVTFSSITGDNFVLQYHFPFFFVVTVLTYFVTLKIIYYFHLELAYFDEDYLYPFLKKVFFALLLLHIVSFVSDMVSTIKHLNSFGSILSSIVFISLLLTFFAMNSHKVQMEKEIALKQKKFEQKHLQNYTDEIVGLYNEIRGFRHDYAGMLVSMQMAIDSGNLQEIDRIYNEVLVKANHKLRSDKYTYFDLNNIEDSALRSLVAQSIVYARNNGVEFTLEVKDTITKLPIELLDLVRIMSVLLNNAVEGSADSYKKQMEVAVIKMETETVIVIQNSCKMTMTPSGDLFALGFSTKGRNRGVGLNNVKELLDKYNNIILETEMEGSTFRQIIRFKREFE
Sequence of ComD2 receptor (A0A0H2US84 entry or part of it): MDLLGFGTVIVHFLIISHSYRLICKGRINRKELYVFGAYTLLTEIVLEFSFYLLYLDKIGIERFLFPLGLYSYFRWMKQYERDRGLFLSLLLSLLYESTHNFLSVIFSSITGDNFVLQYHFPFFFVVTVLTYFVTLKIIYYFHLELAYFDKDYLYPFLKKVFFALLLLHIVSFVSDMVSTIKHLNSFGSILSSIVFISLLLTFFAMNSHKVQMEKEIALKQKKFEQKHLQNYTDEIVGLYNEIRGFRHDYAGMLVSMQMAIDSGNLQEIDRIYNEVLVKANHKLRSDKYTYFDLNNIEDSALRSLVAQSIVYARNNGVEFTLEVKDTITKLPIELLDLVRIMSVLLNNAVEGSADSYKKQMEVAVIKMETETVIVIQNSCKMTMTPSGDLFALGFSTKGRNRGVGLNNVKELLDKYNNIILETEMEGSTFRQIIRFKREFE

Compound | EC50 (ComD2 receptor) | EC50 (ComD1 receptor) | maximal induction of comX compared to CSP1 (ComD1 receptor; ComD1) | other results
CC[C@H](C)[C@@H]1NC(=O)[C@H](Cc2ccccc2)NC(=O)[C@H](CC(=O)O)NC(=O)[C@H](CCCNC(=N)N)NC(=O)[C@H](Cc2ccccc2)NC(=O)[C@H](Cc2ccccc2)NC(=O)[C@@H](NC(=O)[C@H](CO)NC(=O)[C@H](CC(C)C)NC(=O)[C@H](CCCNC(=N)N)NC(=O)[C@H](CCSC)NC(=O)[C@@H](N)CCC(=O)O)CCCCNC(=O)C[C@@H](C(=O)N[C@@H](CCCNC(=N)N)C(=O)N[C@@H](CCCCN)C(=O)N[C@@H](CCCCN)C(=O)O)NC(=O)[C@H](CC(C)C)NC1=O [CSP1-cyc(K6D14)] (H-EMRLSKFFRDFILDRKK-OH; lactam 6-14; N-terminus and C-terminus assumed) | > 1000 nM | > 1000 nM | – | –
CSP1-E1AK6A (AMRLSAFFRDFILQRKK) | – | – | – | inhibition of ComD receptors (ComD1 receptor): could only strongly inhibit the ComD1 receptor
CC[C@H](C)[C@H](NC(=O)[C@H](Cc1ccccc1)NC(=O)[C@@H]1CC(=O)NCCC[C@H](NC(=O)[C@H](CO)NC(=O)[C@H](CC(C)C)NC(=O)[C@H](CCCNC(=N)N)NC(=O)[C@H](CCSC)NC(=O)[C@@H](N)CCC(=O)O)C(=O)N[C@@H](Cc2ccccc2)C(=O)N[C@@H](Cc2ccccc2)C(=O)N[C@@H](CCCNC(=N)N)C(=O)N1)C(=O)N[C@@H](CC(C)C)C(=O)N[C@@H](CCC(N)=O)C(=O)N[C@@H](CCCNC(=N)N)C(=O)N[C@@H](CCCCN)C(=O)N[C@@H](CCCCN)C(=O)O [CSP1-cyc(Orn6D10)] | > 1000 nM | 193 nM | 100% | –
CC[C@H](C)[C@H](NC(=O)[C@H](Cc1ccccc1)NC(=O)[C@H](CC(=O)O)NC(=O)[C@@H]1CC(=O)NCCCC[C@H](NC(=O)[C@H](CO)NC(=O)[C@H](CC(C)C)NC(=O)[C@H](CCCNC(=N)N)NC(=O)[C@H](CCSC)NC(=O)[C@@H](N)CCC(=O)O)C(=O)N[C@@H](Cc2ccccc2)C(=O)N[C@@H](Cc2ccccc2)C(=O)N1)C(=O)N[C@@H](CC(C)C)C(=O)N[C@@H](CCC(N)=O)C(=O)N[C@@H](CCCNC(=N)N)C(=O)N[C@@H](CCCCN)C(=O)N[C@@H](CCCCN)C(=O)O [CSP1-cyc(K6D9)] (H-EMRLSKFFDDFILQRKK-OH; lactam 6-9; N-terminus and C-terminus assumed) | 528 nM | > 1000 nM | – | –
CC[C@H](C)[C@H](NC(=O)[C@H](Cc1ccccc1)NC(=O)[C@@H]1CCC(=O)NCC[C@H](NC(=O)[C@H](CO)NC(=O)[C@H](CC(C)C)NC(=O)[C@H](CCCNC(=N)N)NC(=O)[C@H](CCSC)NC(=O)[C@H](C)N)C(=O)N[C@@H](Cc2ccccc2)C(=O)N[C@@H](Cc2ccccc2)C(=O)N[C@@H](CCCNC(=N)N)C(=O)N1)C(=O)N[C@@H](CC(C)C)C(=O)N[C@@H](CCC(N)=O)C(=O)N[C@@H](CCCNC(=N)N)C(=O)N[C@@H](CCCCN)C(=O)N[C@@H](CCCCN)C(=O)O [CSP1-E1A-cyc(Dab6E10), A-M-R-L-S-(Dab-F-F-R-E)-F-I-L-Q-R-K-K] (H-AMRLS[Dab]FFREFILQRKK-OH; lactam 6-10; N-terminus and C-terminus assumed) | – | – | – | IC50 (ComD2 receptor): > 1000 nM; IC50 (ComD2 receptor; read-out: ComD2 IC50 (95% CI), Table 2, β-gal reporter, IC50 values in italic font): > 1000 nM; IC50 (ComD1 receptor): 173 nM
CC[C@H](C)[C@H](NC(=O)[C@H](Cc1ccccc1)NC(=O)[C@@H]1CCC(=O)NCCCC[C@H](NC(=O)[C@H](CO)NC(=O)[C@H](CC(C)C)NC(=O)[C@H](CCCNC(=N)N)NC(=O)[C@H](CCSC)NC(=O)[C@@H](N)CCC(=O)O)C(=O)N[C@@H](Cc2ccccc2)C(=O)N[C@@H](Cc2ccccc2)C(=O)N[C@@H](CCCNC(=N)N)C(=O)N1)C(=O)N[C@@H](CC(C)C)C(=O)N[C@@H](CCC(N)=O)C(=O)N[C@@H](CCCNC(=N)N)C(=O)N[C@@H](CCCCN)C(=O)N[C@@H](CCCCN)C(=O)O [CSP1-cyc(K6E10)] | > 1000 nM | 350 nM | – | –
CC[C@H](C)[C@H](NC(=O)[C@H](Cc1ccccc1)NC(=O)[C@@H]1CCC(=O)NC[C@H](NC(=O)[C@H](CO)NC(=O)[C@H](CC(C)C)NC(=O)[C@H](CCCNC(=N)N)NC(=O)[C@H](CCSC)NC(=O)[C@H](C)N)C(=O)N[C@@H](Cc2ccccc2)C(=O)N[C@@H](Cc2ccccc2)C(=O)N[C@@H](CCCNC(=N)N)C(=O)N1)C(=O)N[C@@H](CC(C)C)C(=O)N[C@@H](CCC(N)=O)C(=O)N[C@@H](CCCNC(=N)N)C(=O)O [CSP1-E1A-des-K16K17-cyc(Dap6E10), A-M-R-L-S-(Dap-F-F-R-E)-F-I-L-Q-R] (H-AMRLS[Dap]FFREFILQR-OH; lactam 6-10; N-terminus and C-terminus assumed) | – | – | – | IC50 (ComD2 receptor): 67.2 nM; higher inhibition potency against the ComD2 receptor compared to parent CSP1-E1A-cyc(Dap6E10) (ComD2 receptor): 3 fold; IC50 (ComD1 receptor): 7.57 nM; higher inhibition potency against the ComD1 receptor compared to parent CSP1-E1A-cyc(Dap6E10) (ComD1 receptor): ~10 fold
CC[C@H](C)[C@H](NC(=O)[C@H](Cc1ccccc1)NC(=O)[C@@H]1CC(=O)NCCCC[C@H](NC(=O)[C@H](CO)NC(=O)[C@H](CC(C)C)NC(=O)[C@H](CCCNC(=N)N)NC(=O)[C@H](CCSC)NC(=O)[C@@H](N)CCC(=O)O)C(=O)N[C@@H](Cc2ccccc2)C(=O)N[C@@H](Cc2ccccc2)C(=O)N[C@@H](CCCNC(=N)N)C(=O)N1)C(=O)N[C@@H](CC(C)C)C(=O)N[C@@H](CCC(N)=O)C(=O)N[C@@H](CCCNC(=N)N)C(=O)N[C@@H](CCCCN)C(=O)N[C@@H](CCCCN)C(=O)O [CSP1-cyc(K6D10)] | > 1000 nM | 258 nM | 44% | –
CC[C@H](C)[C@@H]1NC(=O)[C@H](Cc2ccccc2)NC(=O)[C@@H](NC(=O)[C@H](CCCNC(=N)N)NC(=O)[C@H](Cc2ccccc2)NC(=O)[C@H](Cc2ccccc2)NC(=O)[C@H](CCCCN)NC(=O)[C@H](CO)NC(=O)[C@H](CC(C)C)NC(=O)[C@H](CCCNC(=N)N)NC(=O)[C@H](CCSC)NC(=O)[C@@H](N)CCC(=O)O)CCCCNC(=O)C[C@@H](C(=O)N[C@@H](CCCNC(=N)N)C(=O)N[C@@H](CCCCN)C(=O)N[C@@H](CCCCN)C(=O)O)NC(=O)[C@H](CC(C)C)NC1=O [CSP1-cyc(K10D14)] (H-EMRLSKFFRKFILDRKK-OH; lactam 10-14; N-terminus and C-terminus assumed) | – | 257 nM | – | –
CC[C@H](C)[C@H](NC(=O)[C@H](Cc1ccccc1)NC(=O)[C@@H]1CCC(=O)NCC[C@H](NC(=O)[C@H](CO)NC(=O)[C@H](CC(C)C)NC(=O)[C@H](CCCNC(=N)N)NC(=O)[C@H](CCSC)NC(=O)[C@@H](N)CCC(=O)O)C(=O)N[C@@H](Cc2ccccc2)C(=O)N[C@@H](Cc2ccccc2)C(=O)N[C@@H](CCCNC(=N)N)C(=O)N1)C(=O)N[C@@H](CC(C)C)C(=O)N[C@@H](CCC(N)=O)C(=O)N[C@@H](CCCNC(=N)N)C(=O)N[C@@H](CCCCN)C(=O)N[C@@H](CCCCN)C(=O)O [CSP1-cyc(Dab6E10)] (H-EMRLS[Dab]FFREFILQRKK-OH; lactam 6-10; N-terminus and C-terminus assumed) | 31.4 nM | 12.2 nM | 100% | potency higher than CSP1-cyc(Orn6D10) (ComD1 receptor; ComD1): 10 fold
